Data taken from patent US8980917B2, “Methods for treating or preventing brain infections” (The Johns Hopkins University, priority 2008, dated 2015).
“Also recorded” adds a separate entry of the source.

Assays:
HBMEC [1] = assay: E. coli K1 binding and invasion assays in human BMEC (HBMEC); format: cell-based; details: strain RS218; HBMEC pretreated 30 mins; compared to vehicle control (DMSO)
Method: E. coli strain RS218 was grown overnight in BHI broth in the presence of streptomycin (50 μg/ml). Bacteria were resuspended in experimental medium [M199-HamF12 (1:1) containing 5% heat-inactivated fetal bovine serum, 2 mM glutamine, and 1 mM pyruvate] and added in a multiplicity of infection (MOI) of 100:1 to HBMEC grown in collagen-coated 24-well plates at 37° C. in 5% CO2 incubator for 90 min for binding assay as described previously (9, 10, 14, 28). HBMEC were washed four times with PBS to remove unbound bacteria, lysed in 0.025% Triton X-100 and plated for determinations of CFUs. The results were calculated as a percent of the initial inoculum and expressed as percent relative binding compared to percent binding of RS218 in the presence of vehicle control (DMSO). Each set was run in triplicates.
The HBMEC invasion assay with gentamicin treatment was performed to determine the number of viable intracellular bacteria recovered from the infected HBMEC, as previously described (9, 10, 14, 28). E. coli K1 strain RS218 was added to HBMEC as described above for binding assay. HBMEC were subsequently washed with RPMI 1640 and incubated with experimental media containing gentamicin (100 μg/ml) for 1 h to kill extracellular bacteria. The cells were washed again with PBS and lysed in 0.025% Triton X-100. The released intracellular bacteria were enumerated by plating on sheep blood agar plates. The results were calculated as a percent of the initial inoculum and expressed as percent relative invasion compared to percent invasion of RS218 in the presence of vehicle control (DMSO). Each set was run in triplicates.
To examine the effects of inhibitors and antagonists on E. coli K1 binding to and invasion of HBMEC, HBMEC were pretreated with inhibitors or antagonists for 30 mins before addition of E. coli, and then processed for binding and invasion assays as described above.
E. coli strain RS218 (O18:K1:H7), a cerebrospinal fluid isolate from a neonate with meningitis, was grown overnight in brain heart infusion (BHI) broth (Difco Laboratories, Detroit, Mich.). Bacteria were resuspended in experimental medium [M199-HamF12 (1:1) containing 5% heat-inactivated fetal bovine serum, 2 mM glutamine, and 1 mM pyruvate] and added in a multiplicity of infection (MOI) of 100:1 to BMECs grown in collagen-coated 24-well plates at 37° C. in 5% CO2 incubator for 90 min for binding assay, as previously described^11. BMECs were washed four times with PBS to remove unbound bacteria, lysed in 0.025% Triton X-100 and plated for determinations of CFUs. The results were calculated as a percent of the initial inoculum and expressed as percent relative binding compared to percent binding of RS218 in the presence of vehicle control (DMSO). Each set was run in triplicates.
The BMEC invasion assay with gentamicin treatment^11 was performed to determine the number of viable intracellular bacteria recovered from the infected BMECs. E. coli K1 strain RS218 was added to BMEC as described above for binding assay. BMECs were subsequently washed with RPMI 1640 and incubated with experimental media containing gentamicin (100 μg/ml) for 1 h to kill extracellular bacteria. The cells were washed again with PBS, lysed in 0.025% Triton X-100, and the released intracellular bacteria were enumerated by plating on sheep blood agar plates. The results were calculated as a percent of the initial inoculum and expressed as percent relative invasion compared to percent invasion of RS218 in the presence of vehicle control (DMSO). Each set was run in triplicates.
E. coli. Human BMEC association and invasion assays were carried out as described previously (15). Briefly, for association assays, confluent human BMEC in 24-well tissue culture plates were incubated with 10^7 CFU of E. coli at a multiplicity of infection of 100 for 90 minutes at 37° C. […]

E. coli K1 strain RS218 [2] = assay: Mouse model of experimental hematogenous E. coli meningitis (5-LO-/- and wild-type 129SvEv mice); format: in vivo
Text: Female 5-LO−/− (129-Alox5^tm1Fun/J) and strain-matched (129SvEv) wild-type mice, 9˜12 week old and 18˜26 gm, were used (23). […] Most animals receiving 1×10^7 CFUs, however, died between one and two hour of intravenous inoculation. Based on these observations, we examined and compared E. coli K1 penetration into the brain at one hour following intravenous administration of 1×10^7 CFUs of strain RS218 in 5-LO−/− and wild type mice.
Mice were anesthetized with pentobarbital sodium given subcutaneously at 50 mg/kg and each mouse received 1×10^7 CFU of E. coli RS218 in 100 μl PBS via the tail vein. One hour later, mouse chest was cut open, and blood from right ventricle was collected and plated for bacterial counts (CFUs). The mouse was, then, perfused with a mammalian Ringer's solution by transcardiac perfusion through a 23-gauge needle inserted into the left ventricle of the heart under the perfusion pressure of about 100 mmHg. The perfusate exited through a cut in the right atrium. The composition of the mammalian Ringer solution was: (in mM) 132 NaCl, 4.6 KCl, 2 CaCl2, 1.2 MgSO4, 5.5 glucose, 5.0 NaHCO3, and 20 HEPES and Na-HEPES, containing 10 mg/ml BSA; pH of the Ringer solution was maintained at 7.40-7.45 by adjustment of the ratio of Na-HEPES to HEPES. […] Bacterial penetration into the brain was also expressed as (brain CFUs per gm/blood CFUs per ml)×100. […]

HBMEC [3] = details: inhibitors of iPLA2 and sPLA2; refs (1-3, 24); cited from earlier work
human BMEC = details: inhibitors of iPLA2 and sPLA2; refs (1-3, 24); cited from earlier work
HBMEC monolayers = assay: Integrity of HBMEC monolayers by TEER before and after transcytosis assays; format: cell-based, human; details: at 50 μM
Text: We also examined the effect of C. neoformans traversal on the HBMEC monolayer integrity, as measured by passive diffusion of ^3H-inulin and TEER at the end of the transcytosis experiment as described previously (7).

[4] = developed for asthma; cited from earlier work
E. coli K1 strain RS218 [5] = assay: Infant rat model of experimental hematogenous E. coli meningitis; format: in vivo; details: 5-day-old rats, 9 animals; i.p. 50 μg/10 gm one hour before bacteria; p < 0.001 by Fisher's exact test
Method: Experimental hematogenous E. coli meningitis was induced in 5-day old rats as previously described (9, 10, 14, 28). Briefly, outbred, specific-pathogen-free pregnant Sprague-Dawley rats with timed conception were purchased from Charles River Breeding laboratory (Wilmington, Mass.). The rats delivered in our vivarium 5 to 7 days after arrival. At 5 days of age, all members of each litter were randomly divided into two groups, to receive intraperitoneally montelukast (50 μg/10 gm of weight in 50 μl PBS) or vehicle control (3.3% DMSO in 50 μl PBS). One hour later, each animal received 1×10^7 CFU of E. coli K1 strain RS218 via intracardiac injection. At one hour after bacterial injection, blood and CSF specimens were obtained as described previously (9, 10, 14, 28) for quantitative cultures. The development of E. coli meningitis (defined as positive CSF cultures) was compared between the two groups of animals.
We also examined one of the CysLT1 antagonists for its effect on E. coli K1 penetration into the brain in our well-characterized infant rat model of experimental hematogenous E. coli meningitis (9, 10, 14, 28). At 5 days of age, all members of each litter were randomly divided to receive intraperitoneally montelukast or vehicle control. […] At one hour after bacterial inoculation, blood and cerebrospinal fluid (CSF) specimens were obtained for quantitative cultures.

With `CN(C)C(=O)CCSC(SCCC(=O)O)c1cccc(/C=C/c2ccc3ccc(Cl)cc3n2)c1` (centres unmarked) [MK571] the “E. coli K1 invasion of HBMEC” value (HBMEC [1]) was “inhibited E. coli K1 invasion of human BMEC monolayers in a dose-dependent manner; also recorded: effective in inhibiting E. coli invasion of HBMEC in a dose-dependent manner” and the “E. coli K1 penetration into the brain (brain CFU/gm and percent of brain CFU/blood CFU)” value (E. coli K1 strain RS218 [2]; wild type mice, oral 400 μg/mouse one hour before bacterial injection, one hour after i.v. 1×10^7 CFU) was “significantly decreased E. coli K1 penetration into the brain in the wild type mice; also recorded: significantly decreased E. coli K1 penetration into the brain of wild type mice”.

In the case of `O=C1O/C(=C/Br)CCC1c1cccc2ccccc12` (centres unmarked) [bromoenol lactone], the “E. coli invasion of human BMEC” value (HBMEC [3]) is listed as “did not exhibit any significant inhibition” and the “GBS invasion of human BMEC” value (human BMEC) is listed as “did not exhibit any significant inhibition”.

For `CC(C)(O)c1ccccc1CC[C@@H](SCC1(CC(=O)O)CC1)c1cccc(/C=C/c2ccc3ccc(Cl)cc3n2)c1` [montelukast], the “integrity of the HBMEC monolayers (TEER)” value (HBMEC monolayers) is given as “did not affect the integrity of the HBMEC monolayers”, the “safety and tolerability in clinical trials” value [4] is given as “safe and well tolerated” and the “% of animals with meningitis (positive CSF cultures)” value (E. coli K1 strain RS218 [5]) is given as 22%. For the same compound, the “No. of animals with meningitis (positive CSF cultures)” value (E. coli K1 strain RS218 [5]) was 2.

In the case of `CC(=O)O[C@@H]1C[C@@H]2[C@@]3(C)CCCC(C)(C)[C@@H]3CC[C@@]2(C)[C@@H]2CC=C(C=O)[C@H](C=O)[C@@]12C` [12-episcalaradial], the “E. coli invasion of human BMEC” value (HBMEC [3]) is given as “did not exhibit any significant inhibition” and the “GBS invasion of human BMEC” value (human BMEC) is given as “did not exhibit any significant inhibition”.

For `CCCCC/C=C\C\C=C/C=C/C=C/[C@@H](SC[C@H](N)C(=O)NCC(=O)O)[C@@H](O)CCCC(=O)O` [LTD4], the “E. coli penetration into the brains” value (E. coli K1 strain RS218 [2]; 5-LO-/- mice, one hour after i.v. E. coli K1 strain RS218) was “rescued the decreased E. coli penetration into the brains”.
